Experimental data reported in US11530217B1, “Antitubercular compounds” (priority 2022, dated 2022).
Values after ≈ are worked out from the molar mass of the structure shown.

These molecules were tested on susceptible H37Rv MTB strain (assay: Resazurin Microplate Assay (REMA), anti-tubercular activity, H37Rv). Details: Mycobacterium tuberculosis, 192 h; in vitro, REMA, susceptible H37Rv MTB strain, 8 days incubation; read-out: MIC (μg/mL) H37Rv.
Type: cell-based
In the case of `CCOC(=O)c1cc(C(=O)c2ccc(Cl)cc2)n2cc(C)cc(C)c12` [Compound 5c, Ethyl 3-(4-chlorobenzoyl)-6,8-dimethylindolizine-1-carboxylate], the MIC is reported as 0.5 µg/mL (≈ 1.41 µM). Work on `COC(=O)c1c(C(=O)OC)c2c(C)cc(C)cn2c1C(=O)c1ccc(Cl)cc1` [Compound 5d, Dimethyl 3-(4-chlorobenzoyl)-6,8-dimethylindolizine-1,2-dicarboxylate] yielded an MIC of 8 µg/mL (≈ 20 µM). `COC(=O)c1c(C(=O)OC)c2c(C)cc(C)cn2c1C(=O)c1ccc(C#N)cc1` [Compound 5l, Dimethyl 3-(4-cyanobenzoyl)-6,8-dimethylindolizine-1,2-dicarboxylate] gave an MIC of 4 µg/mL (≈ 10.2 µM).

Same assay, conditions: Mycobacterium tuberculosis, H37RV, 192 h, read-out: MIC (μg/mL) H37Rv
Molecule `COC(=O)c1c(C(=O)OC)c2c(C)cc(C)cn2c1C(=O)c1ccc(OC)cc1` [Compound 5b, Dimethyl 3-(4-methoxybenzoyl)-6,8-dimethylindolizine-1,2-dicarboxylate] has an MIC of 4 µg/mL (≈ 10.1 µM). `CCOC(=O)c1cc(C(=O)c2ccc(F)cc2)n2cc(C)cc(C)c12` [Compound 5g, Ethyl 3-(4-fluorobenzoyl)-6,8-dimethylindolizine-1-carboxylate] showed an MIC of 4 µg/mL (≈ 11.8 µM). In the case of `CCOC(=O)c1cc(C(=O)c2ccccc2[N+](=O)[O-])n2cc(C)cc(C)c12` [Compound 5h, Ethyl 6,8-dimethyl-3-(2-nitrobenzoyl)indolizine-1-carboxylate], the MIC is reported as 4 µg/mL (≈ 10.9 µM). For `CCOC(=O)c1cc(C(=O)c2cc(C(F)(F)F)cc(C(F)(F)F)c2)n2cc(C)cc(C)c12` [Compound 5i, Ethyl 3-(3,5-bis(trifluoromethyl)benzoyl)-6,8-dimethylindolizine-1-carboxylate], the MIC was 4 µg/mL (≈ 8.75 µM). `CCOC(=O)c1cc(C(=O)c2ccc(C#N)cc2)n2cc(C)cc(C)c12` [Compound 5j, Ethyl 3-(4-cyanobenzoyl)-6,8-dimethylindolizine-1-carboxylate] was tested, and the MIC was 0.5 µg/mL (≈ 1.44 µM). With `CCOC(=O)c1cc(C(=O)c2ccc(C)cc2)n2cc(C)cc(C)c12` [Compound 5k, Ethyl 6,8-dimethyl-3-(4-methylbenzoyl)indolizine-1-carboxylate] the MIC was 0.5 µg/mL (≈ 1.49 µM). Work on `COC(=O)c1c(C(=O)OC)c2c(C)cc(C)cn2c1C(=O)c1ccc(C)cc1` [Compound 5m, Dimethyl 6,8-dimethyl-3-(4-methylbenzoyl)indolizine-1,2-dicarboxylate] yielded an MIC of 0.25 µg/mL (≈ 0.659 µM).
